Experimental data as given in patent US20040106678A1, “Compositions for the parenteral administration of calcium and magnesium” (priority 2002, published 2004).

Experiments:
[1] = parenteral administration; cited from earlier work
[2] = saturated aqueous solution at 20° C.; cited from earlier work
pH of aqueous solution = type: physicochemical
[3] = stability of the powder / shelf life; type: physicochemical
[4] = toxicity / tolerability on parenteral use; conditions: anion is a naturally occurring mammalian metabolite

[Ca+2].[Cl-].[Cl-] [Calcium chloride]
venous toxicity [1]: appreciably toxic to veins

D-gluconic acid calcium salt [Calcium gluconate]
pH of saturated solution [2]: 6-7

calcium 3-hydroxy-3-methylbutyrate [CaHMB]
pH of saturated aqueous solution (pH of aqueous solution; 27% by weight saturated aqueous solution at 20° C.): neutral or slightly alkaline
pH of aqueous solution in distilled water (pH of aqueous solution; if pure, dissolved in distilled water): nearly neutral or slightly alkaline
powder stability / shelf life [3]: stable powders with long shelf lives
toxicity [4]: non-toxic
